Laboratory results from patent publication US12077503B2, “Substituted cyclic amides and their use as herbicides” (FMC CORPORATION, priority 2015, dated 2024).

Assays:
Format in all cases: in vivo
[1] = tested on: ragweed (common ragweed, Ambrosia elatior); test: Test A preemergence; conditions: Ambrosia artemisiifolia, pre-emergence, 240 h
In short: (§1)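 Visual injury scores from 0, no effect, to 100, complete control, were assigned versus untreated controls roughly 10 d after treatment in the greenhouse. Test chemicals, formulated with surfactant in a non-phytotoxic solvent, were applied to planted seeds as a preemergence soil spray or postemergence to one- to two-leaf plants 2 to 10 cm tall, in loam–sand soil.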

[2] = tested on: giant foxtail (Setaria faberii); test: Test A preemergence; conditions: Setaria faberi, pre-emergence, 240 h
In short: as §1

[3] = tested on: pigweed (Amaranthus retroflexus); test: Test A preemergence; conditions: Amaranthus retroflexus, pre-emergence, 240 h
[4] = tested on: Kochia (Kochia scoparia); test: Test A preemergence; conditions: Bassia scoparia, pre-emergence, 240 h
In short: as §1

[5] = tested on: ryegrass, Italian (Italian ryegrass, Lolium multiflorum); test: Test A preemergence; conditions: Lolium multiflorum, pre-emergence, 240 h, Preemergence, 125 g ai/ha; 0 to 100 scale (0 no effect, 100 complete control); read-out: Plant response rating, Ryegrass, Italian
In short: as §1

[6] = tested on: blackgrass (Alopecurus myosuroides); test: Test A postemergence; conditions: Alopecurus myosuroides, post-emergence, 240 h, Postemergence
In short: as §1

[7] = tested on: Galium (catchweed bedstraw, Galium aparine); test: Test A postemergence; conditions: Galium, post-emergence, 240 h, Postemergence
In short: as §1

[8] = tested on: barnyardgrass (Echinochloa crus-galli); test: Test A postemergence; conditions: Echinochloa crus-galli, post-emergence, 240 h, Postemergence
In short: as §1

[9] = tested on: wheat (Triticum aestivum); test: Test A postemergence; conditions: Triticum aestivum, post-emergence, 240 h, Postemergence
In short: as §1

[10] = tested on: ragweed (common ragweed, Ambrosia elatior); test: Test A postemergence; conditions: Ambrosia artemisiifolia, post-emergence, 240 h, Postemergence
In short: as §1

[11] = tested on: giant foxtail (Setaria faberii); test: Test A postemergence; conditions: Setaria faberi, post-emergence, 240 h, Postemergence
In short: as §1

[12] = tested on: pigweed (Amaranthus retroflexus); test: Test A postemergence; conditions: Amaranthus retroflexus, post-emergence, 240 h, Postemergence
In short: as §1

[13] = tested on: corn (Zea mays); test: Test A postemergence; conditions: Zea mays, post-emergence, 240 h, Postemergence
In short: as §1

[14] = tested on: Kochia (Kochia scoparia); test: Test A postemergence; conditions: Bassia scoparia, post-emergence, 240 h, Postemergence
In short: as §1

[15] = tested on: ryegrass, Italian (Italian ryegrass, Lolium multiflorum); test: Test A postemergence; conditions: Lolium multiflorum, post-emergence, 240 h, Postemergence
In short: as §1

CN1C[C@H](c2cccc(C(C)(F)F)c2)[C@@H](C(=O)Nc2ccccc2F)C1=O [Compound 1317]
pest or weed control at 500 g/ha ([1]; 500 g ai/ha, preemergence, 0 to 100 scale where 0 is no effect and 100 is complete control, read-out: Ragweed plant response rating): 40% | pest or weed control at 125 g/ha ([1]; Preemergence, 125 g ai/ha, 0 to 100 scale (0 no effect, 100 complete control), read-out: Plant response rating, Ragweed): 0% | pest or weed control at 500 g/ha ([2]; 500 g ai/ha, preemergence, 0 to 100 scale where 0 is no effect and 100 is complete control, read-out: Foxtail, Giant plant response rating): 100% | pest or weed control at 125 g/ha ([2]; Preemergence, 125 g ai/ha, 0 to 100 scale (0 no effect, 100 complete control), read-out: Plant response rating, Foxtail, Giant): 90% | pest or weed control at 500 g/ha ([3]; 500 g ai/ha, preemergence, 0 to 100 scale where 0 is no effect and 100 is complete control, read-out: Pigweed plant response rating): 60% | pest or weed control at 125 g/ha ([3]; Preemergence, 125 g ai/ha, 0 to 100 scale (0 no effect, 100 complete control), read-out: Plant response rating, Pigweed): 0% | pest or weed control at 500 g/ha ([4]; 500 g ai/ha, preemergence, 0 to 100 scale where 0 is no effect and 100 is complete control, read-out: Kochia plant response rating): 80% | pest or weed control at 125 g/ha ([4]; Preemergence, 125 g ai/ha, 0 to 100 scale (0 no effect, 100 complete control), read-out: Plant response rating, Kochia): 60% | pest or weed control at 125 g/ha [5]: 20% | pest or weed control at 125 g/ha ([6]; 125 g ai/ha, visual rating about 10 d after treatment, read-out: Blackgrass plant response rating (0 to 100 scale)): 80% | pest or weed control at 500 g/ha ([6]; 500 g ai/ha, visual injury, 0 to 100 scale (0 no effect, 100 complete control), approx. 10 d, read-out: Plant response rating, Blackgrass): 80% | pest or weed control at 125 g/ha ([7]; 125 g ai/ha, visual rating about 10 d after treatment, read-out: Galium plant response rating (0 to 100 scale)): 60% | pest or weed control at 500 g/ha ([7]; 500 g ai/ha, visual injury, 0 to 100 scale (0 no effect, 100 complete control), approx. 10 d, read-out: Plant response rating, Galium): 60% | pest or weed control at 125 g/ha ([8]; 125 g ai/ha, visual rating about 10 d after treatment, read-out: Barnyardgrass plant response rating (0 to 100 scale, 0 no effect, 100 complete control)): 90% | pest or weed control at 500 g/ha ([8]; 500 g ai/ha, visual injury, 0 to 100 scale (0 no effect, 100 complete control), approx. 10 d, read-out: Plant response rating, Barnyardgrass): 90% | plant injury at 125 g/ha ([9]; 125 g ai/ha, visual rating about 10 d after treatment, read-out: Wheat plant response rating (0 to 100 scale)): 60% | plant injury at 500 g/ha ([9]; 500 g ai/ha, visual injury, 0 to 100 scale (0 no effect, 100 complete control), approx. 10 d, read-out: Plant response rating, Wheat): 60% | pest or weed control at 125 g/ha ([10]; 125 g ai/ha, visual rating about 10 d after treatment, read-out: Ragweed plant response rating (0 to 100 scale)): 0% | pest or weed control at 500 g/ha ([10]; 500 g ai/ha, visual injury, 0 to 100 scale (0 no effect, 100 complete control), approx. 10 d, read-out: Plant response rating, Ragweed): 20% | pest or weed control at 125 g/ha ([11]; 125 g ai/ha, visual rating about 10 d after treatment, read-out: Foxtail, Giant plant response rating (0 to 100 scale)): 90% | pest or weed control at 500 g/ha ([11]; 500 g ai/ha, visual injury, 0 to 100 scale (0 no effect, 100 complete control), approx. 10 d, read-out: Plant response rating, Foxtail, Giant): 90% | pest or weed control at 125 g/ha ([12]; 125 g ai/ha, visual rating about 10 d after treatment, read-out: Pigweed plant response rating (0 to 100 scale)): 30% | pest or weed control at 500 g/ha ([12]; 500 g ai/ha, visual injury, 0 to 100 scale (0 no effect, 100 complete control), approx. 10 d, read-out: Plant response rating, Pigweed): 20% | plant injury at 125 g/ha ([13]; 125 g ai/ha, visual rating about 10 d after treatment, read-out: Corn plant response rating (0 to 100 scale)): 80% | Corn plant response rating (crop injury, 0 = no effect, 100 = complete kill) at 500 g/ha ([13]; 500 g ai/ha, visual injury, 0 to 100 scale (0 no effect, 100 complete control), approx. 10 d): 80% | pest or weed control at 125 g/ha ([14]; 125 g ai/ha, visual rating about 10 d after treatment, read-out: Kochia plant response rating (0 to 100 scale)): 20% | pest or weed control at 500 g/ha ([14]; 500 g ai/ha, visual injury, 0 to 100 scale (0 no effect, 100 complete control), approx. 10 d, read-out: Plant response rating, Kochia): 30% | pest or weed control at 125 g/ha ([15]; 125 g ai/ha, visual rating about 10 d after treatment, read-out: Ryegrass, Italian plant response rating (0 to 100 scale)): 40% | pest or weed control at 500 g/ha ([15]; 500 g ai/ha, visual injury, 0 to 100 scale (0 no effect, 100 complete control), approx. 10 d, read-out: Plant response rating, Ryegrass, Italian): 80%
